System: SW1088
Assay: MTT test, cytotoxic activity on non-clonogenic cell lines
Type: cell-based
Conditions: Homo sapiens, 10^−5 M, 72 hours incubation, MTT, mean value, read-out: mean optical density, expressed as percentage relative to the mean optical density under the control condition (100%)
How it was run: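 Human astrocytoma SW1088 cells seeded, grown 24 h at 37° C, 5% CO2, then exposed to compounds at 10^−5 to 10^−10 M versus solvent control. Viability by MTT reduction: 3 h MTT incubation, formazan dissolved in DMSO and read by spectrophotometry.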
CC(=O)Oc1ccc(-c2cn(C)c3c(OC(C)=O)ccc(OC(C)=O)c3c2=O)cc1 [CRL8460, 5,8-Diacetoxy-3-[4-(acetoxy)phenyl]-1-methyl-1,4-dihydro-4-quinolmone acetate] showed a viability at 10 µM of 65.7%.

System: J82
Assay: as above
Type: cell-based
Conditions: Homo sapiens, 10^−5 M, 72 hours incubation, MTT, mean value, read-out: mean optical density, expressed as percentage relative to the mean optical density under the control condition (100%)
How it was run: (§1)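 Human bladder cancer lines were seeded at 20 000–50 000 cells/ml and, after 24 h, exposed to compounds at 10^−5 to 10^−10 M against a solvent control. Formazan was dissolved in DMSO and viability was read by spectrophotometric optical density.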
For CC(=O)Oc1ccc(-c2cn(C)c3c(OC(C)=O)ccc(OC(C)=O)c3c2=O)cc1 [CRL8460, 5,8-Diacetoxy-3-[4-(acetoxy)phenyl]-1-methyl-1,4-dihydro-4-quinolmone acetate], the viability at 10 µM was 45.7%.

System: T24
Assay: as above
Type: cell-based
Conditions: Homo sapiens, T-24; T24; 10^−5 M; 72 hours incubation; MTT; mean value; read-out: mean optical density, expressed as percentage relative to the mean optical density under the control condition (100%)
How it was run: as §1
Work on CC(=O)Oc1ccc(-c2cn(C)c3c(OC(C)=O)ccc(OC(C)=O)c3c2=O)cc1 [CRL8460, 5,8-Diacetoxy-3-[4-(acetoxy)phenyl]-1-methyl-1,4-dihydro-4-quinolmone acetate] yielded a viability at 10 µM of 14.2%.

System: U-373MG
Assay: as above
Type: cell-based
Conditions: Homo sapiens, U373 MG; U-373MG; 10^−5 M; 72 hours incubation; MTT; mean value; read-out: mean optical density, expressed as percentage relative to the mean optical density under the control condition (100%)
How it was run: (§2)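 Human cancer lines seeded at 20 000–50 000 cells/ml, allowed 24 h to attach, then exposed to compounds at 10^−5 to 10^−10 M versus solvent control.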
Compound CC(=O)Oc1ccc(-c2cn(C)c3c(OC(C)=O)ccc(OC(C)=O)c3c2=O)cc1 [CRL8460, 5,8-Diacetoxy-3-[4-(acetoxy)phenyl]-1-methyl-1,4-dihydro-4-quinolmone acetate] has a viability at 10 µM of 52.2%.

System: HCT-15
Assay: as above
Type: cell-based
Conditions: Homo sapiens, HCT-16, 10^−5 M, 72 hours incubation, MTT, mean value, read-out: mean optical density, expressed as percentage relative to the mean optical density under the control condition (100%)
How it was run: as §2
In the case of CC(=O)Oc1ccc(-c2cn(C)c3c(OC(C)=O)ccc(OC(C)=O)c3c2=O)cc1 [CRL8460, 5,8-Diacetoxy-3-[4-(acetoxy)phenyl]-1-methyl-1,4-dihydro-4-quinolmone acetate], the viability at 10 µM is reported as 53.7%.

System: A-427
Assay: as above
Type: cell-based
Conditions: Homo sapiens, 10^−5 M, 72 hours incubation, MTT, mean value, read-out: mean optical density, expressed as percentage relative to the mean optical density under the control condition (100%)
How it was run: as §2
For CC(=O)Oc1ccc(-c2cn(C)c3c(OC(C)=O)ccc(OC(C)=O)c3c2=O)cc1 [CRL8460, 5,8-Diacetoxy-3-[4-(acetoxy)phenyl]-1-methyl-1,4-dihydro-4-quinolmone acetate], the viability at 10 µM was 24.9%.

System: U-87MG
Assay: as above
Type: cell-based
Conditions: Homo sapiens; U-87MG; 10^−5 M; 72 hours incubation; MTT; mean value; read-out: mean optical density, expressed as percentage relative to the mean optical density under the control condition (100%)
How it was run: as §2
CC(=O)Oc1ccc(-c2cn(C)c3c(OC(C)=O)ccc(OC(C)=O)c3c2=O)cc1 [CRL8460, 5,8-Diacetoxy-3-[4-(acetoxy)phenyl]-1-methyl-1,4-dihydro-4-quinolmone acetate] gave a viability at 10 µM of 71.5%.

System: A549
Assay: as above
Type: cell-based
Conditions: Homo sapiens, 10^−5 M, 72 hours incubation, MTT, mean value, read-out: mean optical density, expressed as percentage relative to the mean optical density under the control condition (100%)
How it was run: as §2
With CC(=O)Oc1ccc(-c2cn(C)c3c(OC(C)=O)ccc(OC(C)=O)c3c2=O)cc1 [CRL8460, 5,8-Diacetoxy-3-[4-(acetoxy)phenyl]-1-methyl-1,4-dihydro-4-quinolmone acetate] the viability at 10 µM was 43.1%.

System: PC-3
Assay: as above
Type: cell-based
Conditions: Homo sapiens, 10^−5 M, 72 hours incubation, MTT, mean value, read-out: mean optical density, expressed as percentage relative to the mean optical density under the control condition (100%)
How it was run: as §2
CC(=O)Oc1ccc(-c2cn(C)c3c(OC(C)=O)ccc(OC(C)=O)c3c2=O)cc1 [CRL8460, 5,8-Diacetoxy-3-[4-(acetoxy)phenyl]-1-methyl-1,4-dihydro-4-quinolmone acetate] gave a viability at 10 µM of 35.2%.

System: T-47D
Assay: as above
Type: cell-based
Conditions: Homo sapiens, T47D; T-47D; 10^−5 M; 72 hours incubation; MTT; mean value; read-out: mean optical density, expressed as percentage relative to the mean optical density under the control condition (100%)
How it was run: as §2
In the case of CC(=O)Oc1ccc(-c2cn(C)c3c(OC(C)=O)ccc(OC(C)=O)c3c2=O)cc1 [CRL8460, 5,8-Diacetoxy-3-[4-(acetoxy)phenyl]-1-methyl-1,4-dihydro-4-quinolmone acetate], the viability at 10 µM is reported as 56.2%.

System: LoVo
Assay: as above
Type: cell-based
Conditions: Homo sapiens, 10^−5 M, 72 hours incubation, MTT, mean value, read-out: mean optical density, expressed as percentage relative to the mean optical density under the control condition (100%)
How it was run: as §2
For CC(=O)Oc1ccc(-c2cn(C)c3c(OC(C)=O)ccc(OC(C)=O)c3c2=O)cc1 [CRL8460, 5,8-Diacetoxy-3-[4-(acetoxy)phenyl]-1-methyl-1,4-dihydro-4-quinolmone acetate], the viability at 10 µM was 25.5%.

System: MCF7
Assay: as above
Type: cell-based
Conditions: Homo sapiens, 10^−5 M, 72 hours incubation, MTT, mean value, read-out: mean optical density, expressed as percentage relative to the mean optical density under the control condition (100%)
How it was run: as §2
CC(=O)Oc1ccc(-c2cn(C)c3c(OC(C)=O)ccc(OC(C)=O)c3c2=O)cc1 [CRL8460, 5,8-Diacetoxy-3-[4-(acetoxy)phenyl]-1-methyl-1,4-dihydro-4-quinolmone acetate] gave a viability at 10 µM of 35%.

System: not listed separately
Assay: Determination of the maximum tolerated dose (MTD)
Conditions: B6D2F1/Jico, mouse, in vivo, ip; single intraperitoneal administration, doses 2.5 to 160 mg/kg, survival over 14 days
How it was run: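 Mice were 4- to 6-week-old B6D2F1/Jico. They received a single intraperitoneal dose of 2.5 to 160 mg/kg, and survival and body weight were followed for 14 days. MTD is given in mg/kg and is capped at 160 mg/kg by default.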
With CC(=O)Oc1ccc(-c2cn(C)c3c(OC(C)=O)ccc(OC(C)=O)c3c2=O)cc1 [CRL8460, 5,8-Diacetoxy-3-[4-(acetoxy)phenyl]-1-methyl-1,4-dihydro-4-quinolmone acetate] the MTD at 14 day was greater than 160 mg/kg.

— US6645983B1, “Pharmaceutical compositions comprising 4-quinolones for treating cancers” (Laboratoire L. Lafon, priority 1999, dated 2003)
